Laboratory results reported in ChEMBL document CHEMBL1201862, “PubChem BioAssay data set” (2004).
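Exposure lasted 48 hours, with cells grown in 96-well plates and compounds tested at five concentrations. Here, GI50 denotes the concentration required for 50% inhibition of growth.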 Active and inactive are the calls of the source. No stated cut-off is given here; in the data, active = GI50 up to about 1.1 µM and inactive = higher.

Experiments:
Assay in all cases: NCI-60 cell line screen, 48 h
OVCAR-8 = test system: OVCAR-8
HCT-116 = test system: HCT-116
SR = test system: SR
NCI/ADR-RES = test system: NCI/ADR-RES
ACHN = test system: ACHN
Malme-3M = test system: Malme-3M
HL-60 = test system: HL-60
MCF7 = test system: MCF7
786-0 = test system: 786-0
CAKI-1 = test system: CAKI-1
LOX IMVI = test system: LOX IMVI
UACC-62 = test system: UACC-62
SF-268 = test system: SF-268
IGROV-1 = test system: IGROV-1
UO-31 = test system: UO-31
SK-MEL-28 = test system: SK-MEL-28
RPMI-8226 = test system: RPMI-8226
MDA-MB-231 = test system: MDA-MB-231
T47D = test system: T47D
SF-539 = test system: SF-539
SNB-19 = test system: SNB-19
NCI-H460 = test system: NCI-H460
U-251 = test system: U-251
UACC-257 = test system: UACC-257
Hs-578T = test system: Hs-578T
RXF 393 = test system: RXF 393
EKVX = test system: EKVX
NCI-H23 = test system: NCI-H23
NCI-H226 = test system: NCI-H226
TK-10 = test system: TK-10
K562 = test system: K562
M14 = test system: M14
SNB-75 = test system: SNB-75
CCRF-CEM = test system: CCRF-CEM
OVCAR-3 = test system: OVCAR-3
A549 = test system: A549
SK-MEL-5 = test system: SK-MEL-5
OVCAR-5 = test system: OVCAR-5
SN12C = test system: SN12C
MDA-N = test system: MDA-N
KM12 = test system: KM12
NCI-H522 = test system: NCI-H522
SF-295 = test system: SF-295
OVCAR-4 = test system: OVCAR-4
HCC 2998 = test system: HCC 2998
HOP-92 = test system: HOP-92
SW-620 = test system: SW-620
HT-29 = test system: HT-29
MOLT-4 = test system: MOLT-4
PC-3 = test system: PC-3
COLO 205 = test system: COLO 205
A498 = test system: A498
SK-MEL-2 = test system: SK-MEL-2
SK-OV-3 = test system: SK-OV-3
MDA-MB-435 = test system: MDA-MB-435
BT-549 = test system: BT-549
HCT-15 = test system: HCT-15
HOP-62 = test system: HOP-62
DU-145 = test system: DU-145

## O=C(O)c1ccc(NC(c2ccccc2)c2ccc3cccnc3c2O)cc1 (centres undefined)
OVCAR-8
  GI50: 3.85 µM (inactive)
HCT-116
  GI50: 3.67 µM (inactive)
SR
  GI50: 3.32 µM (inactive)
NCI/ADR-RES
  GI50: 3.5 µM (inactive)
ACHN
  GI50: 8.41 µM (inactive)
Malme-3M
  GI50: 29 µM (inactive)
HL-60
  GI50: 2.65 µM (inactive)
MCF7
  GI50: 4.42 µM (inactive)
786-0
  GI50: 6.04 µM (inactive)
CAKI-1
  GI50: 7.83 µM (inactive)
LOX IMVI
  GI50: 7.8 µM (inactive)
UACC-62
  GI50: 6.58 µM (inactive)
SF-268
  GI50: 7.1 µM (inactive)
IGROV-1
  GI50: 16.5 µM (inactive)
UO-31
  GI50: 5.75 µM (inactive)
SK-MEL-28
  GI50: 11.2 µM (inactive)
RPMI-8226
  GI50: 4.38 µM (inactive)
MDA-MB-231
  GI50: 10.8 µM (inactive)
T47D
  GI50: 10.9 µM (inactive)
SF-539
  GI50: 5.66 µM (inactive)
SNB-19
  GI50: 6.7 µM (inactive)
NCI-H460
  GI50: 4.09 µM (inactive)
U-251
  GI50: 4.17 µM (inactive)
UACC-257
  GI50: 11.1 µM (inactive)
Hs-578T
  GI50: 28.5 µM (inactive)
RXF 393
  GI50: 9.12 µM (inactive)
EKVX
  GI50: 7.85 µM (inactive)
NCI-H23
  GI50: 14.7 µM (inactive)
NCI-H226
  GI50: 3.88 µM (inactive)
TK-10
  GI50: 13.7 µM (inactive)
K562
  GI50: 3.56 µM (inactive)
M14
  GI50: 6.19 µM (inactive)
SNB-75
  GI50: 11.6 µM (inactive)
CCRF-CEM
  GI50: 1.72 µM (inactive)
OVCAR-3
  GI50: 2.99 µM (inactive)
A549
  GI50: 5.94 µM (inactive)
SK-MEL-5
  GI50: 6.65 µM (inactive)
OVCAR-5
  GI50: 16.8 µM (inactive)
SN12C
  GI50: 6.87 µM (inactive)
MDA-N
  GI50: 17.5 µM (inactive)
KM12
  GI50: 5.14 µM (inactive)
NCI-H522
  GI50: 4.06 µM (inactive)
SF-295
  GI50: 4 µM (inactive)
OVCAR-4
  GI50: 4.63 µM (inactive)
HCC 2998
  GI50: 13 µM (inactive)
HOP-92
  GI50: 20.2 µM (inactive)
SW-620
  GI50: 5.77 µM (inactive)
HT-29
  GI50: 5.15 µM (inactive)
MOLT-4
  GI50: 3.56 µM (inactive)
PC-3
  GI50: 9.57 µM (inactive)
COLO 205
  GI50: 9.84 µM (inactive)
A498
  GI50: 18.3 µM (inactive)
SK-MEL-2
  GI50: 26.1 µM (inactive)
SK-OV-3
  GI50: 13.6 µM (inactive)
MDA-MB-435
  GI50: 16.3 µM (inactive)
BT-549
  GI50: 10 µM (inactive)
HCT-15
  GI50: 4.95 µM
HOP-62
  GI50: 6.15 µM (inactive)
DU-145
  GI50: 17.7 µM (inactive)
